Common to all, as to format: in vivo
One assay relates to IL-2. Kind of assay: IL-2 production of splenocytes of arthritis-induced mice (ELISA). The conditions noted are these: positive control group (bucillamine 300 mg/kg oral). How it is done:
(§1) Bovine type II collagen and adjuvant were separately emulsified, and each emulsion was subcutanesously injected at a dose of 100 μg to the tail. Three weeks later, a booster was achieved by the intraperitoneal injection of 100 μg of bovine type II collagen to induce arthritis. Immediately after the induction, drugs were administered for 21 days and their inhibitory activity against arthritis was measured. The mice were orally administered with suspensions of indomethacin (1 mg/kg), meloxicam (4 mg/kg), bucillamine (300 mg/kg), and the mixture of extracts from Trachelospermi Caulis and Paeonia Suffruticosa Andrews (SI-000902), every day. For comparison, a normal group (arthritis not induced) and a control (administered with vehicle) were employed. The extract mixture (solid extract, soft extract) was dispersed at a concentration of 20, 50, 100, 200 and 400 mg/kg in a 1% carboxymethyl-cellulose sodium solution before the oral administration. Severity of edema was measured in the four feet of each mouse by blind test with the naked eye every three days and evaluated as grades 0 to 4. The spleen was aseptically excised from arthritis-induced mice and used to give a cell suspension. […] The level of the cytokines IFN-γ and IL-2 in the medium was measured using an ELISA kit (R&D systems) to examine the inhibitory effect of the extract mixture on the cytokines.

The subject of another assay is IFN-γ. Kind of assay: IFN-γ production of splenocytes of arthritis-induced mice (ELISA). The conditions noted are these: positive control group (bucillamine 300 mg/kg oral). As for the experimental part:
as §1

Assay [1] has as its system splenocytes of arthritis-induced mice. Kind of assay: Splenocyte proliferation in arthritis-induced mice (BrdU ELISA). The note with it: Mus musculus, positive control group (bucillamine 300 mg/kg oral). As for the experimental part: Bovine type II collagen and adjuvant were separately emulsified, and each emulsion was subcutanesously injected at a dose of 100 μg to the tail. Three weeks later, a booster was achieved by the intraperitoneal injection of 100 μg of bovine type II collagen to induce arthritis. Immediately after the induction, drugs were administered for 21 days and their inhibitory activity against arthritis was measured. The mice were orally administered with suspensions of indomethacin (1 mg/kg), meloxicam (4 mg/kg), bucillamine (300 mg/kg), and the mixture of extracts from Trachelospermi Caulis and Paeonia Suffruticosa Andrews (SI-000902), every day. For comparison, a normal group (arthritis not induced) and a control (administered with vehicle) were employed. The extract mixture (solid extract, soft extract) was dispersed at a concentration of 20, 50, 100, 200 and 400 mg/kg in a 1% carboxymethyl-cellulose sodium solution before the oral administration. Severity of edema was measured in the four feet of each mouse by blind test with the naked eye every three days and evaluated as grades 0 to 4. The spleen was aseptically excised from arthritis-induced mice, minced and filtered through a filter to separate and collect only the cells. […] After incubation, the cells were fixed, and suppressive activity against splenocyte proliferation was determined using a BrdU ELISA cell proliferation assay kit (Roche).

Results on one compound are retold here after patent US9694045B2, “Pharmaceutical composition for preventing or treating inflammatory diseases comprising trachelospermi caulis extract and paeonia suffruticosa andrews extract, and method for preparing the same” (SINIL PHARMACEUTICAL CO., LTD., priority 2010, dated 2017).

In the case of `CC(C)(S)C(=O)N[C@@H](CS)C(=O)O` [bucillamine], the “suppression of IL-2” value in the assay with IL-2 was found to be 39.1%. Besides, the “suppression of IFN-γ” value with IFN-γ is reported as 88.5%. The compound further showed an inhibition at 300 mg/kg in assay [1] of 51.1%.
